Measured values published in PubChem BioAssay AID328 (DTP/NCI, 2004).
Several values for one entry are separate records, joined by “and”; a condition that tells them apart may be missing. Identical values can stand only once. Inconclusive results and toxic doses are left out.

Tested on: BDF1 mice, P388 leukemia ip, median survival T/C
Test: NCI In Vivo Anticancer Drug Screen. Data for tumor model P388 Leukemia (intraperitoneal) in B6D2F1 (BDF1) mice
Conditions: endpoint: median survival time, higher = longer survival
Outline: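 Transplantable tumour in mice; compound vs vehicle dosing; survival scored; ratio of treated to control reported.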

[1] = dose: 12.5 mg/kg/injection, schedule: Q01DX009 (ip), vehicle: saline with Tween-80
[2] = dose: 50.0 mg/kg/injection, schedule: Q01DX009 (ip), vehicle: saline with Tween-80
[3] = dose: 100.0 mg/kg/injection, schedule: Q01DX009 (ip), vehicle: saline with Tween-80
[4] = dose: 200.0 mg/kg/injection, schedule: Q01DX009 (ip), vehicle: saline with Tween-80

Q: How did the T/C (dose: 6.25 mg/kg/injection, schedule: Q01DX009 (ip), vehicle: saline with Tween-80) turn out when `CN(C)c1ccc(/C=C/c2ccnc3ccc(I)cc23)cc1` was run?
A: 96 % of control

Q: And the T/C [1]?
A: 119 % of control

Q: And the T/C [2]?
A: 116 % of control

Q: For `COC1(c2ccco2)OC1(C)C` (stereo unspecified), which T/C (dose: 5.0 mg/kg/injection, schedule: Q01DX009 (ip), vehicle: Klucel (hydroxypropylcellulose) (HPC)) is on record?
A: 86 % of control

Q: And the T/C (dose: 5.0 mg/kg/injection, schedule: Q04DX003 (ip), vehicle: saline)?
A: 109 % of control

Q: And the T/C (dose: 10.0 mg/kg/injection, schedule: Q01DX009 (ip), vehicle: Klucel (hydroxypropylcellulose) (HPC))?
A: 86 % of control

Q: What about the T/C (dose: 10.0 mg/kg/injection, schedule: Q04DX003 (ip), vehicle: saline) of the same compound?
A: 109 % of control

Q: And the T/C (dose: 20.0 mg/kg/injection, schedule: Q01DX009 (ip), vehicle: Klucel (hydroxypropylcellulose) (HPC))?
A: 90 % of control

Q: And the T/C (dose: 20.0 mg/kg/injection, schedule: Q04DX003 (ip), vehicle: saline)?
A: 104 % of control

Q: How did the T/C (dose: 50.0 mg/kg/injection, schedule: Q04DX003 (ip), vehicle: saline with Tween-80) turn out when `CC(=O)OC1CC2CCC1(C)C2(C)C` (stereo unspecified) was run?
A: 109 % of control

Q: And the T/C (dose: 100.0 mg/kg/injection, schedule: Q04DX003 (ip), vehicle: saline with Tween-80)?
A: 109 % of control

Q: And the T/C (dose: 200.0 mg/kg/injection, schedule: Q04DX003 (ip), vehicle: saline with Tween-80)?
A: 118 % of control

Q: For `COC(=O)C1=C(C)NC(=O)NC1c1ccc(N(CCCl)CCCl)c(OC)c1` (stereo unspecified), which T/C (dose: 1.3 mg/kg/injection, schedule: Q01DX009 (ip), vehicle: saline with Tween-80) is on record?
A: 169 % of control

Q: And the T/C (dose: 2.0 mg/kg/injection, schedule: Q01DX009 (ip), vehicle: saline with Tween-80)?
A: 227 % of control

Q: And the T/C (dose: 3.0 mg/kg/injection, schedule: Q01DX009 (ip), vehicle: saline with Tween-80)?
A: 220 % of control

Q: What about the T/C (dose: 4.5 mg/kg/injection, schedule: Q01DX009 (ip), vehicle: saline with Tween-80) of the same compound?
A: 227 % of control

Q: Which results are given for `CS(=O)(=O)OCCN(CCOS(C)(=O)=O)c1ccc(C(=O)O)cc1`?
A: T/C (dose: 33.0 mg/kg/injection, schedule: Q01DX009 (ip), vehicle: saline with Tween-80): 195 % of control; T/C [2]: 200 % of control; T/C (dose: 75.0 mg/kg/injection, schedule: Q01DX009 (ip), vehicle: saline with Tween-80): 236 % of control; T/C (dose: 300.0 mg/kg/injection, schedule: Q04DX003 (ip), vehicle: saline with Tween-80): 113 % of control

Q: How did the T/C (dose: 100.0 mg/kg/injection, schedule: Q01DX001 (ip), vehicle: saline) turn out when `CCNC(C)(C)C(SSSC(c1cccs1)C(C)(C)NCC)c1cccs1` (stereo unspecified) was run?
A: 104 % of control

Q: What about the T/C (dose: 200.0 mg/kg/injection, schedule: Q01DX001 (ip), vehicle: saline) of the same compound?
A: 118 % of control

Q: Which results are given for `CSCCC(NC(=O)NC(CCSC)C(=O)Oc1ccc([N+](=O)[O-])cc1)C(=O)Oc1ccc([N+](=O)[O-])cc1` (stereo unspecified)?
A: T/C [2]: 87 % of control; T/C [3]: 96 % of control; T/C [4]: 112 % of control

Q: Which T/C (dose: 25.0 mg/kg/injection, schedule: Q01DX009 (ip), vehicle: saline with Tween-80) does the source give for `O=C1C=C2SCCN2C(=O)C1` here?
A: 99 % of control

Q: And the T/C [2]?
A: 99 % of control and 109 % of control

Q: What about the T/C [3] of the same compound?
A: 97 % of control and 124 % of control

Q: And the T/C [4]?
A: 105 % of control and 114 % of control

Q: For `O=C(Nc1cccc(C(F)(F)F)c1)C12CC3CC(CC(C3)C1)C2`, which T/C [1] is on record?
A: 92 % of control

Q: What about the T/C [2] of the same compound?
A: 87 % of control

Q: And the T/C [3]?
A: 90 % of control

Q: How did the T/C (dose: 20.0 mg/kg/injection, schedule: Q04DX003 (ip), vehicle: other) turn out when `CC[NH-].CC[NH-].[Br][Pt+2][Br]` was run?
A: 100 % of control

Q: What about the T/C (dose: 30.0 mg/kg/injection, schedule: Q04DX003 (ip), vehicle: other) of the same compound?
A: 158 % of control

Q: And the T/C (dose: 44.0 mg/kg/injection, schedule: Q04DX003 (ip), vehicle: other)?
A: 154 % of control and 166 % of control

Q: And the T/C (dose: 66.0 mg/kg/injection, schedule: Q04DX003 (ip), vehicle: other)?
A: 159 % of control

Q: And the T/C (dose: 100.0 mg/kg/injection, schedule: Q04DX003 (ip), vehicle: other)?
A: 166 % of control and 168 % of control

Q: And the T/C (dose: 150.0 mg/kg/injection, schedule: Q04DX003 (ip), vehicle: other)?
A: 154 % of control

Q: What about the T/C (dose: 200.0 mg/kg/injection, schedule: Q04DX003 (ip), vehicle: other) of the same compound?
A: 162 % of control

Q: How did the T/C (dose: 1.0 mg/kg/injection, schedule: Q01DX009 (ip), vehicle: saline + alcohol) turn out when `C/C=C(\C)C(=O)O[C@@H]1c2cc3c(cc2-c2c(cc(OC)c(OC)c2OC)[C@@H]2C(=O)OC[C@@H]12)OCO3` was run?
A: 100 % of control

Q: What about the T/C (dose: 1.3 mg/kg/injection, schedule: Q01DX009 (ip), vehicle: saline) of the same compound?
A: 90 % of control

Q: What about the T/C (dose: 2.0 mg/kg/injection, schedule: Q01DX009 (ip), vehicle: saline + alcohol) of the same compound?
A: 100 % of control

Q: And the T/C (dose: 2.0 mg/kg/injection, schedule: Q01DX009 (ip), vehicle: saline)?
A: 100 % of control

Q: And the T/C (dose: 3.0 mg/kg/injection, schedule: Q01DX009 (ip), vehicle: saline)?
A: 100 % of control

Q: And the T/C (dose: 4.0 mg/kg/injection, schedule: Q01DX009 (ip), vehicle: saline + alcohol)?
A: 109 % of control

Q: What about the T/C (dose: 5.3 mg/kg/injection, schedule: Q01DX009 (ip), vehicle: saline with Tween-80) of the same compound?
A: 110 % of control

Q: What about the T/C (dose: 7.11 mg/kg/injection, schedule: Q01DX009 (ip), vehicle: saline + alcohol) of the same compound?
A: 158 % of control

Q: And the T/C (dose: 8.0 mg/kg/injection, schedule: Q01DX009 (ip), vehicle: saline + alcohol)?
A: 118 % of control

Q: What about the T/C (dose: 8.0 mg/kg/injection, schedule: Q01DX009 (ip), vehicle: saline with Tween-80) of the same compound?
A: 110 % of control

Q: And the T/C (dose: 10.66 mg/kg/injection, schedule: Q01DX009 (ip), vehicle: saline + alcohol)?
A: 95 % of control

Q: What about the T/C (dose: 12.0 mg/kg/injection, schedule: Q01DX009 (ip), vehicle: saline with Tween-80) of the same compound?
A: 110 % of control

Q: And the T/C (dose: 16.0 mg/kg/injection, schedule: Q01DX009 (ip), vehicle: saline + alcohol)?
A: 91 % of control

Q: What about the T/C (dose: 21.4 mg/kg/injection, schedule: Q01DX009 (ip), vehicle: saline) of the same compound?
A: 110 % of control

Q: And the T/C (dose: 24.0 mg/kg/injection, schedule: Q01DX009 (ip), vehicle: saline + alcohol)?
A: 100 % of control

Q: And the T/C (dose: 32.0 mg/kg/injection, schedule: Q01DX009 (ip), vehicle: saline)?
A: 115 % of control

Q: What about the T/C (dose: 48.0 mg/kg/injection, schedule: Q01DX009 (ip), vehicle: saline) of the same compound?
A: 100 % of control and 120 % of control

Q: And the T/C (dose: 72.0 mg/kg/injection, schedule: Q01DX009 (ip), vehicle: saline)?
A: 113 % of control

Q: And the T/C (dose: 88.0 mg/kg/injection, schedule: Q01DX009 (ip), vehicle: saline)?
A: 95 % of control

Q: And the T/C (dose: 108.0 mg/kg/injection, schedule: Q01DX009 (ip), vehicle: saline)?
A: 95 % of control

Q: What about the T/C (dose: 133.0 mg/kg/injection, schedule: Q01DX009 (ip), vehicle: saline) of the same compound?
A: 100 % of control

Q: And the T/C (dose: 200.0 mg/kg/injection, schedule: Q01DX009 (ip), vehicle: saline)?
A: 90 % of control

Q: Which results are given for `[I][Hg][CH2]C1COC([CH2][Hg][I])CO1` (stereo unspecified)?
A: T/C (dose: 0.78 mg/kg/injection, schedule: Q01DX010 (ip), vehicle: saline): 95 % of control; T/C (dose: 1.56 mg/kg/injection, schedule: Q01DX010 (ip), vehicle: saline): 95 % of control and 118 % of control; T/C (dose: 3.13 mg/kg/injection, schedule: Q01DX010 (ip), vehicle: saline): 100 % of control and 122 % of control; T/C (dose: 6.25 mg/kg/injection, schedule: Q01DX010 (ip), vehicle: saline): 122 % of control; T/C (dose: 12.5 mg/kg/injection, schedule: Q01DX010 (ip), vehicle: saline): 118 % of control

Q: Which results are given for `C=C(CCC(C(=O)O)C1CCC2(C)C3=C(CCC12C)C1(C)CCC(O)C(C)(C)C1CC3)C(C)C` (stereo unspecified)?
A: T/C (dose: 12.5 mg/kg/injection, schedule: Q01DX009 (sc), vehicle: steriod suspending solution): 100 % of control; T/C (dose: 25.0 mg/kg/injection, schedule: Q01DX009 (sc), vehicle: steriod suspending solution): 99 % of control; T/C (dose: 50.0 mg/kg/injection, schedule: Q01DX009 (ip), vehicle: steriod suspending solution): 87 % of control; T/C (dose: 50.0 mg/kg/injection, schedule: Q01DX009 (sc), vehicle: steriod suspending solution): 98 % of control; T/C (dose: 100.0 mg/kg/injection, schedule: Q01DX009 (ip), vehicle: steriod suspending solution): 92 % of control; T/C (dose: 100.0 mg/kg/injection, schedule: Q01DX009 (sc), vehicle: steriod suspending solution): 101 % of control and 106 % of control; T/C (dose: 200.0 mg/kg/injection, schedule: Q01DX009 (sc), vehicle: steriod suspending solution): 91 % of control

Q: How did the T/C (dose: 1.56 mg/kg/injection, schedule: Q01DX009 (ip), vehicle: Klucel (hydroxypropylcellulose) (HPC)) turn out when `Cc1ccnc(NS(=O)(=O)c2ccc(N=Nc3nc4[nH]c(N)nc(=S)c4[nH]3)cc2)n1` was run?
A: 151 % of control

Q: What about the T/C (dose: 3.12 mg/kg/injection, schedule: Q01DX009 (ip), vehicle: Klucel (hydroxypropylcellulose) (HPC)) of the same compound?
A: 112 % of control

Q: What about the T/C (dose: 6.25 mg/kg/injection, schedule: Q01DX009 (ip), vehicle: Klucel (hydroxypropylcellulose) (HPC)) of the same compound?
A: 108 % of control
